What all share (test): Competitive affinity-based chemoproteomics (UNC0965 matrix), PBMC cell extract
Holding throughout (assay type): binding

In test [1] the target is T1, JUP (Homo sapiens, UniProt P14923).
T1 construct: endogenous in cells; host or cells: PBMC from healthy blood donors, cell extract
The following applies: 20 µM competitor, n=2. As to the method:
(§1) described.[2] Lysates were precleared with bead slurry (100 μL) for 30 min at 4 °C and then treated with UNC0638 or UNC0737 (20 μM) or DMSO control for 30 min at 4 °C followed by incubation with affinity matrix for 2 h at 4 °C. Affinity matrices were washed with buffer A (5 mL) and proteins eluted with 100 μL of 2x Laemmli sample buffer, 100 mM DTT, in PBS and heating for 10 min at 90 °C.
(§2) Eluents (70 µL) were diluted in 0.1 M Tris (pH 7.8) to 200 µL, reduced with 5 mM DTT for 30 min at RT, and alkylated with 20 mM iodoacetamide for 30 min at RT in the dark. Proteins were precipitated by sequential addition of MeOH (600 µL), CHCl3 (150 µL) and H2O (450 µL), pelleted (17,000 × g, 5 min), washed with further MeOH (2 × 600 µL), and re-pelleted. Air dried pellets were resuspended in 50 μL 6 M urea (pH 7.8) by vortexing and then diluted with 250 μL H2O before adding 1 µg trypsin for overnight incubation at 37 °C. The digests were acidified with FA (1% v/v final concentration), desalted using SOLA HRP SPE Cartridges (Thermo Fisher), eluted with 69% v/v MeCN, 0.1% v/v FA in H2O (600 μL) and dried in vacuo. Dried peptides were stored at -20 °C before resuspension in 2% v/v MeCN, 0.1% v/v FA in H2O (20 μL) for LC-MS/MS analysis.
(§3) LC-MS/MS Data Acquisition
(§4) Digested samples were analysed by nano-UPLC–MS/MS using a Dionex Ultimate 3000 nano UPLC fitted with an EASY spray column (75 μm × 500 mm, 2 μm particle size, Thermo Scientific), coupled to an Orbitrap Q Exactive instrument. A 60 min gradient of 0.1% (v/v) formic acid in 5 % (v/v) DMSO to 0.1% (v/v) formic acid with 35% (v/v) acetonitrile in 5 % (v/v) DMSO at a flow rate of 250 nL min−1 was used. The instrument was operated in a data-dependant mode, with survey scans acquired at a resolution of 70,000 at 200 m/z and the 15 most abundant precursors selected for HCD fragmentation with an AGC target of […] ions.
(§5) Raw data was processed using MaxQuant[3] version 2.0.1.0 and the reference complete human proteome FASTA file (UniProt, downloaded 05.08.21). Label Free Quantification (LFQ) and Match Between Runs were selected; Cysteine carbamidomethylation was selected as a fixed modification, and methionine oxidation and asparagine deamidation as variable modifications. Default settings for identification and quantification were used. Specifically, a minimum peptide length of 7, a maximum of 2 missed cleavage sites, and a maximum of 5 labelled amino acids per peptide were allowed.
(§6) Through selection of the ‘trypsin/P’ general setting, peptide bond cleavage at arginine or lysine (followed by any amino acid) was considered during in silico digest of the reference proteome. The allowed precursor and fragment ion mass tolerances were 4.5 ppm and 20 ppm, respectively. Peptides and proteins were identified utilizing a 0.01 false discovery rate, with “unique and razor peptides” […]
(§7) mode selected for both identification and quantification of proteins (razor peptides are uniquely assigned to protein groups and not to individual proteins).

Test [2] has as its target T2, EHMT1 (Homo sapiens, UniProt Q9H9B1).
T2 construct: endogenous in cells; host or cells: PBMC from healthy blood donors, cell extract
T2 sequence (Q9H9B1 1-1298): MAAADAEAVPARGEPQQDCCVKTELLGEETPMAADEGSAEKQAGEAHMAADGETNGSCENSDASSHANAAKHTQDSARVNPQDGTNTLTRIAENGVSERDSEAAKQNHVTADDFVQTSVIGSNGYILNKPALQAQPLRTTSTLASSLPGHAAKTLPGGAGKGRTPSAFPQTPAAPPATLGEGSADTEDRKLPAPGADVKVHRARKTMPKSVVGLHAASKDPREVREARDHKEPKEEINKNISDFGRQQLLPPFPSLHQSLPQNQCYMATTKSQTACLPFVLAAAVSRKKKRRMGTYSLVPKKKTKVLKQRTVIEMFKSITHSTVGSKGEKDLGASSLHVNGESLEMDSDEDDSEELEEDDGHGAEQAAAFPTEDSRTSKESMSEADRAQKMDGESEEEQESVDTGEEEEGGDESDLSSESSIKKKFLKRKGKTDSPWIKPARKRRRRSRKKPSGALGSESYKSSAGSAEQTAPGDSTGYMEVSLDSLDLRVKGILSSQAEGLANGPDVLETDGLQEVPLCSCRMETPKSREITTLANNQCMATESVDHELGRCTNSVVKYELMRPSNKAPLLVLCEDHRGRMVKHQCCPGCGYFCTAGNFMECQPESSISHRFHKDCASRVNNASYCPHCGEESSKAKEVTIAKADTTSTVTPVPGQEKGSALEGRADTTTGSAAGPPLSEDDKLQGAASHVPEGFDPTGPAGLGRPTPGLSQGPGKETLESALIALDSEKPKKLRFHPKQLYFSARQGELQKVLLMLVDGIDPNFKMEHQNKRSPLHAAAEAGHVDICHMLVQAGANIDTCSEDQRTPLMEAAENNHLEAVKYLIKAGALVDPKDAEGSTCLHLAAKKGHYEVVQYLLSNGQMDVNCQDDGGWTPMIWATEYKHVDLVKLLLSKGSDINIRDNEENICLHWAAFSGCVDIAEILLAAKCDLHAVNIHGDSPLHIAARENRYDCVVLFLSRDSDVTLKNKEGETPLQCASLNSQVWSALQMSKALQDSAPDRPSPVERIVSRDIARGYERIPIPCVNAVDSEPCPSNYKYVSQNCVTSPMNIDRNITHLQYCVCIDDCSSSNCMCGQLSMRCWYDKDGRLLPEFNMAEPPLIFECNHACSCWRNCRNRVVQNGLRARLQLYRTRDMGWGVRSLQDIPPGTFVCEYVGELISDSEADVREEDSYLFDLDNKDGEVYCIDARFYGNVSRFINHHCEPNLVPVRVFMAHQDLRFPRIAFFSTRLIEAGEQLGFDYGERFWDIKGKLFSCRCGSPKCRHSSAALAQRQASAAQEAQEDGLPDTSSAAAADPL
The following applies: 20 µM competitor; for FC vs DMSO (log2 competition), EHMT1: n=2. The procedure:
as §1, §2, §3, §4, §5, §6, §7

Test [3] concerns the target T3, CPSF6 (Homo sapiens, UniProt Q16630).
T3 construct: endogenous in cells; host or cells: PBMC from healthy blood donors, cell extract
The following applies: 20 µM competitor, n=2. The procedure: as §1, §2, §3, §4, §5, §6, §7

The structures appear in SMILES notation.

T3 sequence (Q16630 whole entry): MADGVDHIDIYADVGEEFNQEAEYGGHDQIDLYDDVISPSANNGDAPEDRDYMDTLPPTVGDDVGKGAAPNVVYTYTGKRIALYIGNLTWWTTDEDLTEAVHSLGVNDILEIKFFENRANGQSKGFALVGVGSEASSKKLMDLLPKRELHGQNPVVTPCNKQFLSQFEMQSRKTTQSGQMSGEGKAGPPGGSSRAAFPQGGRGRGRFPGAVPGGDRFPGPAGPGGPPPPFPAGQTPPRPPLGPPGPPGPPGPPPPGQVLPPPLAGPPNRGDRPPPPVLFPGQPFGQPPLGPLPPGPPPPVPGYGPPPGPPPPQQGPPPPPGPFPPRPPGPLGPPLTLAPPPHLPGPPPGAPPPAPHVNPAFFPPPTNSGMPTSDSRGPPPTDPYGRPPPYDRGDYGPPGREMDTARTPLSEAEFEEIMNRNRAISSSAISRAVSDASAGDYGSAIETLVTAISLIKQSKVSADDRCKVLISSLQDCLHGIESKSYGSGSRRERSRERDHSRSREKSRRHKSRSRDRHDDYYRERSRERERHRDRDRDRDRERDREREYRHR
T1 sequence (P14923 whole entry): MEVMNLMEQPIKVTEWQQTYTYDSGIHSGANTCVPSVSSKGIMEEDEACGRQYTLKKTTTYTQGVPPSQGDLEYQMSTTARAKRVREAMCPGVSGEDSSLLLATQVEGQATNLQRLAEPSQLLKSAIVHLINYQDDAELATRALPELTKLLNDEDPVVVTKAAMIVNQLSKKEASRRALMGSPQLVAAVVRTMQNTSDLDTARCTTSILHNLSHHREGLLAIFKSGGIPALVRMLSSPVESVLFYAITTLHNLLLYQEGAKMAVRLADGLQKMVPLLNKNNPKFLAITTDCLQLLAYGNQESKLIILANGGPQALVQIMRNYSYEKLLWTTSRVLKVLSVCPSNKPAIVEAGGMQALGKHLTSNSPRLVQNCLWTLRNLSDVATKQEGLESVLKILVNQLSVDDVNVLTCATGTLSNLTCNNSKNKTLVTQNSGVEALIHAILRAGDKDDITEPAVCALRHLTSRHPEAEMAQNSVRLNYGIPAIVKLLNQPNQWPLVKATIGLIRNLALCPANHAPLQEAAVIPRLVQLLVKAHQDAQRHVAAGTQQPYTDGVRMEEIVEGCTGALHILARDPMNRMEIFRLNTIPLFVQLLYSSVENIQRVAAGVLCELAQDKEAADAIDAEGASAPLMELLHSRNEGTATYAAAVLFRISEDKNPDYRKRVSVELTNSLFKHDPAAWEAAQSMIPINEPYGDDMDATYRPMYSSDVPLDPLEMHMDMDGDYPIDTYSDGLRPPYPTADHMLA

On to `COc1cc2c(NC3CCN(C(C)C)CC3)nc(C3CCCCC3)nc2cc1OCCCN1CCCC1` [UNC0638], for which the “FC vs DMSO (log2 competition), JUP” value in test [1] is on record as -1.79. Moreover, in test [2], the “EHMT1 (GLP) binding to the matrix” value is “reduced binding to the matrix” and the “FC vs DMSO (log2 competition), EHMT1” value is listed as -2.05. In addition, the “FC vs DMSO (log2 competition), CPSF6” value in test [3] is -1.787.

Consider `COc1cc2c(N(C)C3CCN(C(C)C)CC3)nc(C3CCCCC3)nc2cc1OCCCN1CCCC1` [UNC0737], for which, in test [1], the “FC vs DMSO (log2 competition), JUP” value is -0.7174. Further, in test [2], the “FC vs DMSO (log2 competition), EHMT1” value was determined as 0.1524. Also, in test [3], the “FC vs DMSO (log2 competition), CPSF6” value is on record as -0.1868.

Source of the values: paper PMC11811597, “Phenomics‐Based Discovery of Novel Orthosteric Choline Kinase Inhibitors” (Angewandte Chemie (International Ed. in English), 2025).
